Assay: PK study of P-S after topical
Type: in vivo, rat
Details: for Tmax: LEW/crlBR, rat, po, 50 mg/kg
[1] = oral gavage P-S 50 mg/kg single dose, blood
[2] = oral gavage P-S 50 mg/kg single dose, muscle
[3] = topical PSH, single dose P-S 50 mg/kg on both hind legs, muscle
[4] = topical PSH, single dose P-S 50 mg/kg, blood
[5] = topical PSH, single dose P-S 50 mg/kg, muscle

Compound	Tmax (blood) [h]	Tmax (muscle) [h]	AUC0–24h, blood [1]	Cmax, blood [1] [nmol/g]	AUC0–24h, muscle [2]	Cmax, muscle [2] [nmol/g]	Cmax, muscle [3] [nmol/g]	AUC0–24h, blood [4]	Cmax, blood [4] [nmol/g]	AUC0–24h, muscle [5]	muscle Cmax (topical PSH, muscle) [nmole/g tissue]	Tmax, blood [1] [h]	Tmax, muscle [2] [h]	Tmax, blood [4] [h]	Tmax, muscle [5] [h]
CSc1ccc(/C=C2/C(C)=C(CC(=O)O)c3cc(F)ccc32)cc1 [S.sulfide, sulindac sulfide]	8	8	156 (nmole/g)*h	13	158 (nmole/g)*h	13	2	122 (nmole/g)*h	10	18 (nmole/g)*h	≤ 31	–	–	–	–
CC1=C(CC(=O)O)c2cc(F)ccc2/C1=C\c1ccc(S(C)(=O)=O)cc1 [S.sulfone, sulindac sulfone]	–	–	–	52	764 (nmole/g)*h	40	12	400 (nmole/g)*h	23	170 (nmole/g)*h	≤ 31	8	8	8	24
CC1=C(CC(=O)O)c2cc(F)ccc2/C1=C\c1ccc([S+](C)[O-])cc1 (stereo not shown) [Sulindac, sulindac, reference compound]	2	8	405 (nmole/g)*h	33	296 (nmole/g)*h	20	31	245 (nmole/g)*h	18	399 (nmole/g)*h	≤ 31	–	–	–	–

— article PMC4395004 (Pharmaceutical research, 2013)
